In patent US20260364076A1 (Amgen Inc., priority 2022, published 2026):
Where two headings read alike, the source gives them in different places.

Assays:
[1] = test system: cells and tumors harboring KRAS G12C mutations; conditions: cited from earlier work
[2] = test system: extracellular signal-regulated kinase (ERK); conditions: preclinical studies; cited from earlier work
CYP3A = conditions: hepatic; cited from earlier work
KRAS p.G12C tumors = conditions: mice bearing KRAS p.G12C tumors; cited from earlier work
[3] = test system: cancer with the KRAS G12C mutation; conditions: cited from earlier work
[4] = Single-dose PK study in subjects with moderate or severe hepatic impairment compared to healthy subjects; type: in vivo, human
Method: (§1) This Example describes an open-label single-dose study of sotorasib that was conducted in healthy subjects and subjects with moderate or severe hepatic impairment (see, Inclusion/Exclusion criteria):
(§2) The primary objective of the study was to evaluate the pharmacokinetics (PK) of a single oral dose of sotorasib administered in subjects with moderate or severe hepatic impairment compared to subjects with normal hepatic function. The secondary objective of the study was to evaluate the safety and tolerability of sotorasib administered in subjects with moderate or severe hepatic impairment compared to subjects with normal hepatic function.
(§3) Subjects meeting eligibility requirements were assigned to 1 of 3 groups: Group 1—Normal function (No impairment, n=6-12); Group 2—Moderate impairment (Child-Pugh Class B, n=6-8); Group 3—Severe impairment (Child-Pugh Class C, n=6-8). The classification is based on Child-Pugh scores as per Figg et al. (1995).
The plasma PK parameters of sotorasib will be calculated using standard noncompartmental methods.
The data from hepatically impaired subjects (Group 2 and 3; tests) and control subjects (normal hepatic function [Group 1]; reference) will be included in the analysis. Geometric mean ratios (Test/Reference) for Cmax and AUC values and associated 90% confidence intervals will be estimated.
Additional parameters may be calculated, and sotorasib metabolites may be analyzed. PK parameters for the metabolites, if calculated, will not be subject to inferential statistical analysis. Specific details will be presented in the Statistical Analysis Plan for this study.

[5] = Drug-drug interaction study with rifampin (CYP3A4 inducer): sotorasib plasma PK in healthy subjects; type: in vivo, human; conditions: for Cmax / AUC(0-inf) / AUC(0-t): human, plasma, 960 mg; for AUC(0-inf): read-out: AUCinf (GLSM); for AUC(0-t): read-out: AUClast (GLSM)
Method: (§4) Safety and tolerability monitoring were performed throughout the study.

[6] = Drug-drug interaction study with itraconazole (CYP3A4 inhibitor): sotorasib plasma PK in healthy subjects; conditions: human, in vivo, po, 360 mg; for AUC(0-inf): AUCinf (GLSM); for AUC(0-t): AUClast (GLSM)
Method: as §4

KRAS^G12C = conditions: cited from earlier work
[7] = in vivo; cited from earlier work
[8] = Safety and tolerability in single-dose hepatic impairment study; type: in vivo, human
Method: as §1, §2, §3

[9] = 960 mg sotorasib + 600 mg rifampin on day 3 (Test), single-dose rifampin
[10] = 960 mg sotorasib + 600 mg rifampin on day 18 (Test), multiple daily dosing of rifampin
[11] = 960 mg sotorasib on day 1 (Reference), healthy subjects
[12] = 360 mg sotorasib + 200 mg itraconazole (Test), day 6, healthy subjects
[13] = 360 mg sotorasib alone (Reference), day 1, single oral dose, healthy subjects

- half-life ([4]; human, in vivo, po, 960 mg, read-out: half-life (t1/2), arithmetic mean): 6.42 to 8.18 h
- Tmax ([4]; human, in vivo, po, 960 mg, read-out: median tmax): 1 to 1.47 h
- Cmax [5, 9]: 5340 ng/mL
- AUC(0-inf) [5, 9]: 19600 ng·h/mL
- AUC(0-t) [5, 9]: 19400 ng·h/mL
- Cmax [5, 10]: 4110 ng/mL
- AUC(0-inf) [5, 10]: 12400 ng·h/mL
- AUC(0-t) [5, 10]: 12300 ng·h/mL
- AUC(0-inf) [5, 11]: 25600 ng·h/mL
- AUC(0-t) [5, 11]: 25400 ng·h/mL
- Cmax [6]: 6130 ng/mL
- Tmax [6]: 0.51 h
- AUC(0-inf) [6, 12]: 31000 ng·h/mL
- AUC(0-inf) [6, 13]: 24600 ng·h/mL
- AUC(0-t) [6, 12]: 30700 ng·h/mL
- AUC(0-t) [6, 13]: 22700 ng·h/mL
SMILES: C=CC(=O)N1CCN(c2nc(=O)n(-c3c(C)ccnc3C(C)C)c3nc(-c4c(O)cccc4F)c(F)cc23)[C@@H](C)C1 (atropisomer, axis not shown; (M)) [Sotorasib, 6-fluoro-7-(2-fluoro-6-hydroxyphenyl)-(1M)-1-[4-methyl-2-(propan-2-yl)pyridin-3-yl]-4-[(2S)-2-methyl-4-(prop-2-enoyl)piperazin-1-yl]pyrido[2,3-d]pyrimidin-2(1H)-one]
- growth and regression of cells and tumors [1]: inhibition of growth and regression of cells and tumors harboring KRAS G12C mutations
- inhibition of phosphorylation of ERK [2]: inhibited nearly all detectable phosphorylation
- metabolizing enzyme (CYP3A): mainly metabolized by the hepatic enzymes CYP3A
- tumor regression (KRAS p.G12C tumors): durable complete tumor regression
- tumor response ([3]; NSCLC, colorectal, pancreatic, appendiceal, endometrial, unknown primary, ampullary, gastric, small bowel, sinonasal, bile duct cancer, or melanoma): stable disease (SD) or partial response (PR)
- disease control rate (95% CI) ([3]; colorectal cancer, 42 patients): 73.8%
- disease control rate (95% CI) ([3]; non-small cell lung cancer, 59 patients): 88.1%
- disease control rate (95% CI) ([3]; other tumor types, 28 patients): 75.0%
- PK and safety profile ([4]; moderate or severe hepatic impairment vs healthy subjects): clinically sufficiently similar to the PK and safety profile of healthy subjects
- half-life (t1/2), trend across hepatic function groups ([4]; normal, moderate or severe hepatic impairment, 960 mg sotorasib): no apparent trend related to hepatic impairment
- Geometric mean exposures, based on AUC and Cmax ([5]; following coadministration with rifampin on days 3 and 18): lower following coadministration with rifampin on days 3 and 18
- inhibition of KRAS^G12C (KRAS^G12C): specifically and irreversibly inhibits
- route of elimination [7]: mainly eliminated via the fecal route
- findings in clinical laboratory evaluations, physical examinations, ECGs, and vital signs ([8]; 960 mg sotorasib single dose): no clinically meaningful findings
- serious adverse events or treatment-emergent adverse events leading to discontinuation ([8]; 960 mg sotorasib single dose): no serious adverse events or treatment-emergent adverse events leading to discontinuation
- adverse event severity ([8]; all adverse events, 960 mg sotorasib): mild in severity
- resolution of adverse events ([8]; by end of study): All the adverse events resolved by the end of study
- treatment-emergent adverse events considered related to sotorasib ([8]; number of events, 20 subjects, Investigator assessment): 5
- treatment-emergent adverse events ([8]; number of events, 20 subjects, single dose 960 mg sotorasib): 9
- safety and tolerability ([8]; single doses, normal hepatic function, moderate or severe hepatic impairment): safe and well-tolerated
